# Key:
# [1] = molecular target: GDP-bound NRAS wild-type protein (Homo sapiens, UniProt P01111); experiment: Binding to NRAS by surface plasmon resonance (SPR), KD and KD ratio to KRAS
# Procedure, shortened: (§1)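 Each cycle, GDP-bound biotin-Avi RAS was captured (~100–300 RU), compound concentrations were injected low to high for 75 s each at 100 µL/min, then the chip was regenerated. Buffer: HBS pH 7.4, 10 mM MgCl2, 10 µM GDP, 1 mM DTT, 4% DMSO; 30°C. KD from a 1:1 binding model.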
# [2] = molecular target: HRAS wild-type protein (Homo sapiens, UniProt P01112); experiment: Binding to HRAS by surface plasmon resonance (SPR), KD and KD ratio to KRAS
# Procedure, shortened: as §1
# [3] = molecular target: GDP-bound KRAS wild-type protein (Homo sapiens, UniProt P01116); experiment: Binding to KRAS by surface plasmon resonance (SPR), dissociation constant KD; conditions: Single Cycle Kinetics
# Procedure, shortened: as §1
# [4] = test system: human lung cancer strain NCI-H441; type: cell-based
# Procedure, shortened: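 Signal came from […] measured per well once the reagent was added. Beforehand, cells were cultured at 37°C and 5% carbon dioxide on a compound series serially diluted in dimethyl sulfoxide.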
# [5] = ratio of KD for GDP-bound NRAS wild-type protein to KD for KRAS
# [6] = ratio of KD for HRAS wild-type protein to KD for KRAS
# [7] = ratio of KD with respect to GDP-bound NRAS wild-type protein to KD with respect to KRAS
# [8] = ratio of KD with respect to HRAS wild-type protein to KD with respect to KRAS
# [9] = ratio of KD value for GDP-bound NRAS wild-type protein to KD value for KRAS (SPR)
# [10] = ratio of KD value for HRAS wild-type protein to KD value for KRAS (SPR)
# Chain of GDP-bound KRAS wild-type protein (P01116 1-188 isoform P01116-2): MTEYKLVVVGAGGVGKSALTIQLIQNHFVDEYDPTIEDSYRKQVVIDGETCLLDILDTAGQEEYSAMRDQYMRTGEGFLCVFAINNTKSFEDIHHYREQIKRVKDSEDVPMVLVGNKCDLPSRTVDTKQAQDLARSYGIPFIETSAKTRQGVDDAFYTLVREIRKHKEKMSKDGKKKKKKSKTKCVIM
# Chain of GDP-bound NRAS wild-type protein (P01111 whole entry): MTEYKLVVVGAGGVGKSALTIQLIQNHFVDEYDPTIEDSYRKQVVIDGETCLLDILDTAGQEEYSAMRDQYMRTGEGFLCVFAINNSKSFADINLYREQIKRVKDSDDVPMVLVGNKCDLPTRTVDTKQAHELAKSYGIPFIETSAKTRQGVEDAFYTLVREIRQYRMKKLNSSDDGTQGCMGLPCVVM
# Chain of HRAS wild-type protein (P01112 whole entry): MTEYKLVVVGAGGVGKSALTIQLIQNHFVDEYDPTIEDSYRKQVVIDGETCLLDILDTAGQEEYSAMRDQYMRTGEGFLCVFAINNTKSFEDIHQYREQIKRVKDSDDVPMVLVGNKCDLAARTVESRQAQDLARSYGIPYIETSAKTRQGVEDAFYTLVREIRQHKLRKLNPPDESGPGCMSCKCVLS
SMILES,"NRAS /KRAS [1, 5]","HRAS /KRAS [2, 6]",Kd [3],IC50 [4],"NRAS /KRAS [1, 7]","HRAS /KRAS [2, 8]",Kd ([3]; 1:1 binding model),"NRAS /KRAS [1, 9]","HRAS /KRAS [2, 10]"
CCO[C@@H]1C[C@H]2C(=O)NC3(CCC3)C(=O)N(C)[C@@H](C3CCCC3)C(=O)N(C)[C@H](C(=O)N(C)C)CC(=O)N(C)[C@@H](CC)C(=O)N[C@@H]([C@@H](C)CC)C(=O)N3CCC[C@H]3C(=O)N(C)[C@H]3C/C=C\CCN(C3=O)[C@@H](Cc3ccc(C(F)(F)F)cc3)C(=O)N(C)CC(=O)N[C@@H](CCc3cc(F)c(C(F)(F)F)c(F)c3)C(=O)N2C1 [PP1056],A (a compound having 10 or more and less than 20 is denoted as A),A (a compound having 10 or more and less than 20 is denoted as A),0.00021 µM,0.075 µM,–,–,–,–,–
CCO[C@@H]1C[C@H]2C(=O)NC3(CCC3)C(=O)N(C)[C@@H](C3CCCC3)C(=O)N(C)[C@H](C(=O)N(C)C)CC(=O)N(C)[C@@H](CC)C(=O)N[C@@H]([C@@H](C)CC)C(=O)N3CCCC[C@H]3C(=O)N(C)[C@H]3C/C=C\CCN(C3=O)[C@@H](Cc3ccc(C(F)(F)F)cc3)C(=O)N(C)CC(=O)N[C@@H](CCc3cc(F)c(C(F)(F)F)c(F)c3)C(=O)N2C1 [PP1058],A (a compound having 10 or more and less than 20 is denoted as A),B (a compound having 3 or more and less than 10 is denoted as B),0.0029 µM,0.599 µM,–,–,–,–,–
CCO[C@@H]1C[C@H]2C(=O)NC3(CCC3)C(=O)N(C)[C@@H](C3CCCC3)C(=O)N(C)[C@H](C(=O)N(C)C)CC(=O)N(C)[C@@H](CC)C(=O)N[C@@H]([C@@H](C)CC)C(=O)N3CC[C@@H]3C(=O)N(C)[C@H]3C/C=C\CCN(C3=O)[C@@H](Cc3ccc(C(F)(F)F)cc3)C(=O)N(C)CC(=O)N[C@@H](CCc3cc(F)c(C(F)(F)F)c(F)c3)C(=O)N2C1 [PP1064],A (a compound having 10 or more and less than 20 is denoted as A),A (a compound having 10 or more and less than 20 is denoted as A),0.017 µM,1.39 µM,–,–,–,–,–
CCO[C@@H]1CCN2C(=O)[C@H](CCc3cc(F)c(C(F)(F)F)c(F)c3)NC(=O)CN(C)C(=O)[C@H](Cc3ccc(C(F)(F)F)cc3)N3CCCCC[C@@H](C3=O)N(C)C(=O)CN(C)C(=O)[C@H]([C@@H](C)CC)NC(=O)[C@H](CC(C)C)N(C)C(=O)C[C@@H](C(=O)N3CCOCC3)N(C)C(=O)[C@H](C3CCCC3)N(C)C(=O)C3(CCC3)NC(=O)[C@H]12 [PP1082],A (a compound having 10 or more and less than 20 is denoted as A),B (a compound having 3 or more and less than 10 is denoted as B),0.0035 µM,0.3 µM,–,–,–,–,–
CCO[C@@H]1C[C@H]2C(=O)NC3(CCC3)C(=O)N(C)[C@@H](C3CCCC3)C(=O)N(C)[C@H](C(=O)N3C4CCC3COC4)CC(=O)N(C)[C@@H](CC)C(=O)N[C@@H]([C@@H](C)CC)C(=O)N(C)CC(=O)N(C)[C@H]3C/C=C\CCN(C3=O)[C@@H](Cc3ccc(C(F)(F)F)cc3)C(=O)N(C)CC(=O)N[C@@H](CCc3cc(F)c(C(F)(F)F)c(F)c3)C(=O)N2C1 [PP1093],AA (a compound having 20 or more is denoted as AA),A (a compound having 10 or more and less than 20 is denoted as A),0.00058 µM,0.0787 µM,–,–,–,–,–
CC[C@H](C)[C@@H]1NC(=O)[C@H](CC(C)C)N(C)C(=O)C[C@@H](C)N(C)C(=O)[C@H](C2CCCC2)N(C)C(=O)C2(CCC2)NC(=O)[C@@H]2CCCN2C(=O)[C@H](CCc2cc(F)c(C(F)(F)F)c(F)c2)NC(=O)CN(C)C(=O)[C@H](Cc2ccc(C(F)(F)F)cc2)N2CC/C=C\C[C@@H](C2=O)N(C)C(=O)CN(C)C1=O [PP1099],B (a compound having 3 or more and less than 10 is denoted as B),A (a compound having 10 or more and less than 20 is denoted as A),0.00058 µM,0.0681 µM,–,–,–,–,–
CCO[C@@H]1C[C@H]2C(=O)NC3(CCC3)C(=O)N(C)[C@@H](C3CCCC3)C(=O)N(C)[C@H](C)CC(=O)N(C)[C@@H](CC(C)C)C(=O)N[C@@H]([C@@H](C)CC)C(=O)N(C)CC(=O)N(C)[C@H]3C/C=C\CCN(C3=O)[C@@H](Cc3ccc(C(F)(F)F)cc3)C(=O)N(C)CC(=O)N[C@@H](CCc3cc(F)c(C(F)(F)F)c(F)c3)C(=O)N2C1 [PP1100],B (a compound having 3 or more and less than 10 is denoted as B),B (a compound having 3 or more and less than 10 is denoted as B),0.00019 µM,0.0176 µM,–,–,–,–,–
CC[C@H](C)[C@@H]1NC(=O)[C@H](CC(C)C)N(C)C(=O)C[C@@H](C(=O)N2C[C@@H](C)O[C@@H](C)C2)N(C)C(=O)[C@H](C2CCCC2)N(C)C(=O)C2(CCCC2)NC(=O)[C@@H]2CCCN2C(=O)[C@H](CCc2ccc(C(F)(F)F)c(Cl)c2)NC(=O)CN(C)C(=O)[C@H](Cc2ccc(F)cc2)N2CCCCC[C@@H](C2=O)N(C)C(=O)CN(C)C1=O [PP1151],–,–,–,0.0971 µM,B (a compound having 3 or more and less than 10 is denoted as B),B (a compound having 3 or more and less than 10 is denoted as B),0.00064 µM,–,–
CCO[C@@H]1C[C@H]2C(=O)NC3(CCC3)C(=O)N(C)[C@@H](C3CCCC3)C(=O)N(C)[C@H](C(=O)N(CC)CC)CC(=O)N(C)[C@@H](CC(F)F)C(=O)N[C@@H]([C@@H](C)CC)C(=O)N(C)CC(=O)N(C)[C@H]3C/C=C\CCN(C3=O)[C@@H](Cc3ccc(C(F)(F)F)cc3)C(=O)N(C)CC(=O)N[C@@H](CCc3cc(F)c(C(F)(F)F)c(F)c3)C(=O)N2C1 [PP1309],–,–,–,0.0053 µM,A (a compound having 10 or more and less than 20 is denoted as A),A (a compound having 10 or more and less than 20 is denoted as A),0.00016 µM,–,–
CCO[C@@H]1C[C@H]2C(=O)NC3(CCC3)C(=O)N(C)[C@@H](C3CCCC3)C(=O)N(C)[C@H](C)CC(=O)N(C)[C@@H](CC3CC3)C(=O)N[C@@H]([C@@H](C)CC)C(=O)N(C)CC(=O)N(C)[C@H]3C/C=C\CCN(C3=O)[C@@H](Cc3ccc(F)cc3C)C(=O)N(C)CC(=O)N[C@@H](CCc3cc(F)c(C(F)(F)F)c(F)c3)C(=O)N2C1 [PP1489],–,–,–,0.118 µM,–,–,0.0026 µM,B (a compound having 3 or more and less than 10 is denoted as B),B (a compound having 3 or more and less than 10 is denoted as B)
CCO[C@@H]1C[C@H]2C(=O)NC3(CCC3)C(=O)N(C)[C@@H](C3CCCC3)C(=O)N(C)[C@H](C)CC(=O)N(C)[C@@H](CC3CCCC3)C(=O)N[C@@H]([C@@H](C)CC)C(=O)N(C)CC(=O)N(C)[C@H]3C/C=C\CCN(C3=O)[C@@H](Cc3ccc(F)cc3)C(=O)N(C)CC(=O)N[C@@H](CCc3cc(F)c(C(F)(F)F)c(F)c3)C(=O)N2C1 [PP1492],–,–,–,0.129 µM,–,–,0.00094 µM,B (a compound having 3 or more and less than 10 is denoted as B),B (a compound having 3 or more and less than 10 is denoted as B)
CCO[C@@H]1C[C@H]2C(=O)NC3(CCC3)C(=O)N(C)[C@@H](C3CCCC3)C(=O)N(C)[C@H](C)CC(=O)N(C)[C@@H](CC(C)C)C(=O)N[C@@H]([C@@H](C)CC)C(=O)N(C)CC(=O)N(C)[C@H]3C/C=C\CCN(C3=O)[C@@H](Cc3ccc(F)cc3C)C(=O)N(C)CC(=O)N[C@@H](CCc3cc(F)c(C(F)(F)F)c(F)c3)C(=O)N2C1 [PP1493],–,–,–,0.135 µM,–,–,0.0023 µM,B (a compound having 3 or more and less than 10 is denoted as B),B (a compound having 3 or more and less than 10 is denoted as B)
CCO[C@@H]1C[C@H]2C(=O)NC3(CCC3)C(=O)N(C)[C@@H](C3CCCC3)C(=O)N(C)[C@H](C)CC(=O)N(C)[C@@H](CC(C)C)C(=O)N[C@@H]([C@@H](C)CC)C(=O)N(C)CC(=O)N(C)[C@H]3C/C=C\CCN(C3=O)[C@@H](Cc3ccc(F)cc3)C(=O)N(C)CC(=O)N[C@@H](CCc3cc(F)c(C(F)(F)F)c(F)c3)C(=O)N2C1 [PP1494],–,–,–,0.143 µM,–,–,0.00058 µM,B (a compound having 3 or more and less than 10 is denoted as B),B (a compound having 3 or more and less than 10 is denoted as B)
CCO[C@@H]1C[C@H]2C(=O)NC3(CCC3)C(=O)N(C)[C@@H](C3CCCC3)C(=O)N(C)[C@H](C(=O)N3CCOCC3)CC(=O)N(C)[C@@H](CC3CC3)C(=O)N[C@@H]([C@@H](C)CC)C(=O)N(C)CC(=O)N(C)[C@H]3C/C=C\CCN(C3=O)[C@@H](Cc3ccc(F)cc3C)C(=O)N(C)CC(=O)N[C@@H](CCc3cc(F)c(C(F)(F)F)c(F)c3)C(=O)N2C1 [PP1495],–,–,–,0.0987 µM,–,–,0.00055 µM,A (a compound having 10 or more and less than 20 is denoted as A),B (a compound having 3 or more and less than 10 is denoted as B)
CC[C@H](C)[C@@H]1NC(=O)[C@H](CC2CCCC2)N(C)C(=O)C[C@@H](C(=O)N(C)C)N(C)C(=O)[C@H](C2CCCC2)N(C)C(=O)C2(CCC2)NC(=O)[C@@H]2C[C@@H](C(F)(F)F)CN2C(=O)[C@H](CCc2cc(F)c(C(F)(F)F)c(F)c2)NC(=O)CN(C)C(=O)[C@H](Cc2ccc(F)cc2)N2CC/C=C\C[C@@H](C2=O)N(C)C(=O)CN(C)C1=O [PP1508],–,–,–,0.0281 µM,–,–,0.00015 µM,A (a compound having 10 or more and less than 20 is denoted as A),A (a compound having 10 or more and less than 20 is denoted as A)

# — patent EP4603105A1, “PHARMACEUTICAL COMPOSITION CONTAINING CYCLIC COMPOUND HAVING SELECTIVE KRAS INHIBITORY EFFECT AGAINST HRAS AND NRAS” (CHUGAI SEIYAKU KABUSHIKI KAISHA, priority 2022, dated 2024)
